From patent publication US11266616B2, “Compositions and methods for inhibiting kinase activity” (BRANDEIS UNIVERSITY, priority 2016, dated 2022)
Entries after “also recorded” stand apart in the source; their conditions may differ. Like-named read-outs stand apart in the source and are kept apart here.

Legend:
[1] = tested on: HeLa cells; assay: HeLa cell viability with PS48; type: cell-based, human; settings: FIG. 39
[2] = molecular target: T1, dephosphorylated Aurora A kinase (Homo sapiens, UniProt O14965); assay: Isothermal titration calorimetry (ITC) binding to dephosphorylated Aurora A kinase
T1 construct: Codon-optimized Aurora A^122-403 in pET28a and untagged λPP in T7-7 plasmid were co-transformed in BL21(DE3) cells; inferred from pET28a and the NiNTA column) (cleaved yes); made in house; host or cells: E. coli BL21(DE3), co-expressed with lambda protein phosphatase
T1 sequence (O14965 122-403): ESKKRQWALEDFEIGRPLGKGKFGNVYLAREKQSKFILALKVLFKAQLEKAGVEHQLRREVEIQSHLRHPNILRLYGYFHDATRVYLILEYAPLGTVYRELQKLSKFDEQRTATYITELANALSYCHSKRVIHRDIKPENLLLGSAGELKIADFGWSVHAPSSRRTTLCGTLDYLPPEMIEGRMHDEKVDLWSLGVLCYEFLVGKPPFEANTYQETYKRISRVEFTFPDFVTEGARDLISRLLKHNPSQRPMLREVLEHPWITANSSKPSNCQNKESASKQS
Method: Titrations were carried out using Nano ITC isothermal titration calorimeter (TA Instruments) and analyzed via the NanoAnalyze software using the independent fit model. Injectant was added in 1 μl volume, every 180 s, with a constant stirring speed at 350 rpm and at 25° C. Prior to ITC titration, both protein and TPX2 or monobody were dialyzed/resuspended in ITC buffer (20 mM TrisHCl, 200 mM NaCl, 3% (vol/vol) glycerol, 1 mM TCEP, pH 7.50).

[3] = tested on: HeLa cells; assay: Cell imaging of synchronized HeLa cells treated with PS48 (Aurora A localization, mitotic progression); type: cell-based, human
Description: FIG. 30 is a schematic showing a summary of a protocol used for cell synchronization experiments described herein to visualize effects of PS48 on TPX2 and Aurora A interaction in vivo.
The physiological importance of the Aurora A-TPX2 interaction was then investigated through experiments using PS48 to disrupt the Aurora A-TPX2 interaction in vivo. As described herein, during the transition to mitosis, Aurora A kinase is known to localize to the centrosomes and the spindle, with levels and activity of Aurora A kinase peaking during this point. TPX2 activates Aurora A kinase and targets Aurora A kinase to the spindle during mitosis. Thus, to observe effects of disruption of the Aurora A-TPX2 interaction on the biological in vivo activities of Aurora A kinase, cells in the experiment needed to be synchronized. The live cell imaging experiments to monitor Aurora A kinase and TPX2 in vivo interaction herein were performed using HeLa cells; however, HEK293 cells may also be used (FIGS. 33-35).
To monitor mitotic progression over time with fine resolution, in addition to staining DNA, phosphorylated histone H3 (“H3_P”) was also stained to monitor levels of H3_P in cells during live cell imaging (FIG. 31). Phosphorylation of Ser10 of histone H3 is considered to be a temporal marker of mitotic progression. […]

[4] = molecular target: T2, TPX2 binding site of Aurora A kinase (Homo sapiens, UniProt O14965); assay: NMR titration (1H-15N HSQC) of TPX2, Aurora A and PS48; settings: FIGS. 27A-27C
T2 construct: Codon-optimized Aurora A^122-403 in pET28a and untagged λPP in T7-7 plasmid were co-transformed in BL21(DE3) cells; inferred from pET28a and the NiNTA column) (cleaved yes); made in house; host or cells: E. coli BL21(DE3) (Aurora A); TPX2 not described
T2 sequence (O14965 122-403): T1 sequence (O14965 122-403)
Method: FIGS. 27A-27C is a set of plots showing results of NMR titration showing that PS48 binds to the TPX2 binding site of Aurora A kinase. FIG. 27A is a plot showing ^1H-^15N heteronuclear single quantum coherence (HSQC) spectra of selected titration points (250 μM TPX2, 250 μM TPX2+100 μM Aurora A, and 250 μM TPX2+100 μM Aurora A+1.5 mM PS48). A magnified view showing separation of peaks is indicated by an arrow. FIG. 27B is a plot showing changes in chemical shift (Δδ) at 200 μM TPX2 and varying concentrations of Aurora A. FIG. 27C is a plot showing changes in chemical shift (Δδ) at 200 μM TPX2 and 100 μM Aurora A and varying concentrations of PS48.

[5] = Stability of PS48 at very high concentrations; type: physicochemical

Kd ([2]; Aurora A saturated with danusertib, FIGS. 3C-3D, read-out: Kd of PS48 binding to dephosphorylated Aurora A kinase): ~85 µM
Kd ([2]; ITC, FIG. 3B, read-out: Kd of binding of PS48 to Aurora A kinase): ~46 µM
stability of PS48 [5]: not stable
Compound: O=C(O)/C=C(/CCc1ccc(Cl)cc1)c1ccccc1 [PS48]
HeLa cell viability [1]: PS48-dose dependent; also recorded: decreased cell viability
localization of Aurora A to the spindle during mitosis ([3]; HeLa cells treated with PS48, FIGS. 36-37): not observed at the spindles
progression of HeLa cells through mitosis ([3]; presence of PS48 vs DMSO, FIG. 38): prolonged
binding site of PS48 on Aurora A kinase [4]: bound to the TPX2 binding site of Aurora A kinase
